Test results: the supplement of paper PMC12698765
Where a name gives a salt, the structure may show the parent alone. ± gives the standard deviation of the averaged measurements.

Legend:
[1] = tested on: 409B2 hiPSC (iCRISPR Cas9, FRMD7 editing); assay: MMEJ-attributed deletion frequency relative to solvent control (fold (ratio to mock)); higher = more MMEJ outcomes
Procedure: (§1)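 Subset screen of 55 drugs tested at 5 concentrations around the effective screening dose, in 409B2 iCRISPR Cas9 hiPSCs editing FRMD7 with a ssDNA donor. Drugs were applied for 24 h. Viability was read by resazurin and editing outcomes by amplicon sequencing (HDR, NHEJ <2 bp microhomology, MMEJ ≥2 bp microhomology). Values are relative to solvent mock controls; two biological replicates.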

[2] = tested on: 409B2 hiPSC (iCRISPR Cas9, FRMD7 editing); assay: NHEJ-attributed indel frequency relative to solvent control (fold (ratio to mock)); higher = more NHEJ outcomes
Procedure: as §1

[3] = tested on: 409B2 hiPSC (iCRISPR Cas9, FRMD7 editing); assay: HDR (precise edit) frequency relative to solvent control (fold (ratio to mock)); higher = more homology-directed repair outcomes
Procedure: as §1

[4] = tested on: 409B2 hiPSC (iCRISPR Cas9, FRMD7 editing); assay: cell survival relative to solvent control (fold (ratio to mock)); higher = more surviving cells
Procedure: as §1

O=C1NC(=O)[C@@H](c2cn3c4c(cccc24)CCC3)[C@@H]1c1c[nH]c2ccccc12 [Tivantinib (ARQ 197)] (in DMSO)
MMEJ-attributed deletion frequency ([1]; 200 nM): 0.915 ± 0.074
MMEJ-attributed deletion frequency ([1]; 500 nM): 0.98 ± 0.025
MMEJ-attributed deletion frequency ([1]; 1000 nM): 1 ± 0.088
MMEJ-attributed deletion frequency ([1]; 2000 nM): 1.48 ± 0.36
MMEJ-attributed deletion frequency ([1]; 5000 nM): 0.786 ± 0.051
NHEJ-attributed indel frequency ([2]; 200 nM): 0.949 ± 0.045
NHEJ-attributed indel frequency ([2]; 500 nM): 1.01 ± 0.025
NHEJ-attributed indel frequency ([2]; 1000 nM): 1.115 ± 0.0054
NHEJ-attributed indel frequency ([2]; 2000 nM): 1 ± 0.05
NHEJ-attributed indel frequency ([2]; 5000 nM): 0.532 ± 0.069
HDR ([3]; 200 nM): 1.01 ± 0.089
HDR ([3]; 500 nM): 1.05 ± 0.015
HDR ([3]; 1000 nM): 0.897 ± 0.1
HDR ([3]; 2000 nM): 0.507 ± 0.081
HDR ([3]; 5000 nM): 0.281 ± 0.0069
cell survival ([4]; 200 nM): 0.979
cell survival ([4]; 500 nM): 1.04
cell survival ([4]; 1000 nM): 0.271
cell survival ([4]; 2000 nM): 0.0426
cell survival ([4]; 5000 nM): 0.0118

CC[C@@]1(O)C(=O)OCc2c1cc1n(c2=O)Cc2cc3c(CN(C)C)c(O)ccc3nc2-1 [Topotecan] (in DMSO)
MMEJ-attributed deletion frequency ([1]; 2 nM): 1.13 ± 0.065
MMEJ-attributed deletion frequency ([1]; 5 nM): 1.04 ± 0.1
MMEJ-attributed deletion frequency ([1]; 10 nM): 0.835 ± 0.1
MMEJ-attributed deletion frequency ([1]; 20 nM): 0.595 ± 0.26
MMEJ-attributed deletion frequency ([1]; 50 nM): 0.699 ± 0.15
NHEJ-attributed indel frequency ([2]; 2 nM): 0.951 ± 0.029
NHEJ-attributed indel frequency ([2]; 5 nM): 0.936 ± 0.04
NHEJ-attributed indel frequency ([2]; 10 nM): 0.896 ± 0.032
NHEJ-attributed indel frequency ([2]; 20 nM): 0.68 ± 0.029
NHEJ-attributed indel frequency ([2]; 50 nM): 0.625 ± 0.023
HDR ([3]; 2 nM): 1.11 ± 0.042
HDR ([3]; 5 nM): 1.07 ± 0.049
HDR ([3]; 10 nM): 0.938 ± 0.035
HDR ([3]; 20 nM): 0.975 ± 0.16
HDR ([3]; 50 nM): 0.321 ± 0.15
cell survival ([4]; 2 nM): 0.777
cell survival ([4]; 5 nM): 0.814
cell survival ([4]; 10 nM): 0.361
cell survival ([4]; 20 nM): 0.0825
cell survival ([4]; 50 nM): 0.0185

C[C@@H]1O[C@@H](O[C@@H]2[C@@H](O)[C@H](OCCc3ccc(O)c(O)c3)O[C@H](CO)[C@H]2OC(=O)/C=C/c2ccc(O)c(O)c2)[C@H](O)[C@H](O)[C@H]1O [Verbascoside] (in DMSO)
MMEJ-attributed deletion frequency ([1]; 20 nM): 1.01 ± 0.02
MMEJ-attributed deletion frequency ([1]; 50 nM): 0.993 ± 0.082
MMEJ-attributed deletion frequency ([1]; 100 nM): 1.06 ± 0.06
MMEJ-attributed deletion frequency ([1]; 200 nM): 0.976 ± 0.13
MMEJ-attributed deletion frequency ([1]; 500 nM): 1.02 ± 0.087
NHEJ-attributed indel frequency ([2]; 20 nM): 0.964 ± 0.014
NHEJ-attributed indel frequency ([2]; 50 nM): 1.01 ± 0.033
NHEJ-attributed indel frequency ([2]; 100 nM): 0.994 ± 0.03
NHEJ-attributed indel frequency ([2]; 200 nM): 1 ± 0.019
NHEJ-attributed indel frequency ([2]; 500 nM): 0.975 ± 0.016
HDR ([3]; 20 nM): 1.1 ± 0.064
HDR ([3]; 50 nM): 1.13 ± 0.017
HDR ([3]; 100 nM): 1.024 ± 0.0069
HDR ([3]; 200 nM): 1.04 ± 0.044
HDR ([3]; 500 nM): 1.11 ± 0.012
cell survival ([4]; 20 nM): 0.884
cell survival ([4]; 50 nM): 1.1
cell survival ([4]; 100 nM): 0.99
cell survival ([4]; 200 nM): 1.11
cell survival ([4]; 500 nM): 1.04

CC[C@]1(O)C[C@@H]2CN(CCc3c([nH]c4ccccc34)[C@@](C(=O)OC)(c3cc4c(cc3OC)N(C)[C@H]3[C@@](O)(C(=O)OC)[C@H](OC(C)=O)[C@]5(CC)C=CCN6CC[C@]43[C@@H]65)C2)C1 [Vinblastine sulfate] (in DMSO)
MMEJ-attributed deletion frequency ([1]; 2 nM): 1.11 ± 0.049
MMEJ-attributed deletion frequency ([1]; 5 nM): 1.08 ± 0.057
MMEJ-attributed deletion frequency ([1]; 10 nM): 1.13 ± 0.55
MMEJ-attributed deletion frequency ([1]; 20 nM): 0.779 ± 0.3
MMEJ-attributed deletion frequency ([1]; 50 nM): 0.6333 ± 0.0063
NHEJ-attributed indel frequency ([2]; 2 nM): 1.04 ± 0.018
NHEJ-attributed indel frequency ([2]; 5 nM): 0.958 ± 0.12
NHEJ-attributed indel frequency ([2]; 10 nM): 0.792 ± 0.39
NHEJ-attributed indel frequency ([2]; 20 nM): 0.606 ± 0.21
NHEJ-attributed indel frequency ([2]; 50 nM): 0.498 ± 0.064
HDR ([3]; 2 nM): 1.08 ± 0.098
HDR ([3]; 5 nM): 0.737 ± 0.042
HDR ([3]; 10 nM): 0.633 ± 0.4
HDR ([3]; 20 nM): 0.511 ± 0.28
HDR ([3]; 50 nM): 0.302 ± 0.056
cell survival ([4]; 2 nM): 0.687
cell survival ([4]; 5 nM): 0.117
cell survival ([4]; 10 nM): 0.0623
cell survival ([4]; 20 nM): 0.00294
cell survival ([4]; 50 nM): 0.00452

CC(O)C(=O)O (stereo not given) [lactate] (in H2O)
MMEJ-attributed deletion frequency ([1]; 200 nM): 1.01 ± 0.044
MMEJ-attributed deletion frequency ([1]; 500 nM): 0.849 ± 0.074
MMEJ-attributed deletion frequency ([1]; 1000 nM): 0.952 ± 0.094
MMEJ-attributed deletion frequency ([1]; 2000 nM): 1.05 ± 0.096
MMEJ-attributed deletion frequency ([1]; 5000 nM): 1 ± 0.094
NHEJ-attributed indel frequency ([2]; 200 nM): 0.984 ± 0.021
NHEJ-attributed indel frequency ([2]; 500 nM): 1.02 ± 0.028
NHEJ-attributed indel frequency ([2]; 1000 nM): 1.04 ± 0.03
NHEJ-attributed indel frequency ([2]; 2000 nM): 0.998 ± 0.047
NHEJ-attributed indel frequency ([2]; 5000 nM): 1 ± 0.013
HDR ([3]; 200 nM): 1.02 ± 0.065
HDR ([3]; 500 nM): 0.941 ± 0.056
HDR ([3]; 1000 nM): 0.946 ± 0.091
HDR ([3]; 2000 nM): 1.01 ± 0.1
HDR ([3]; 5000 nM): 1.005 ± 0.0083
cell survival ([4]; 200 nM): 1.15
cell survival ([4]; 500 nM): 1.08
cell survival ([4]; 1000 nM): 0.963
cell survival ([4]; 2000 nM): 1.06
cell survival ([4]; 5000 nM): 1.15

CC[C@]1(O)C[C@@H]2CN(CCc3c([nH]c4ccccc34)[C@@](C(=O)OC)(c3cc4c(cc3OC)N(C)[C@H]3[C@@](O)(C(=O)OC)[C@H](OC(C)=O)[C@]5(CC)C=CCN6CC[C@]43[C@@H]65)C2)C1 [vinblastine] (in DMSO)
MMEJ-attributed deletion frequency ([1]; 2 nM): 1.02 ± 0.27
MMEJ-attributed deletion frequency ([1]; 5 nM): 1.51 ± 0.71
MMEJ-attributed deletion frequency ([1]; 10 nM): 0.931 ± 0.61
MMEJ-attributed deletion frequency ([1]; 20 nM): 0.674 ± 0.053
MMEJ-attributed deletion frequency ([1]; 50 nM): 0.827 ± 0.05
NHEJ-attributed indel frequency ([2]; 2 nM): 1.07 ± 0.05
NHEJ-attributed indel frequency ([2]; 5 nM): 0.982 ± 0.17
NHEJ-attributed indel frequency ([2]; 10 nM): 0.857 ± 0.17
NHEJ-attributed indel frequency ([2]; 20 nM): 0.415 ± 0.0047
NHEJ-attributed indel frequency ([2]; 50 nM): 0.557 ± 0.013
HDR ([3]; 2 nM): 0.877 ± 0.038
HDR ([3]; 5 nM): 0.65 ± 0.05
HDR ([3]; 10 nM): 0.556 ± 0.031
HDR ([3]; 20 nM): 0.249 ± 0.051
HDR ([3]; 50 nM): 0.248 ± 0.035
cell survival ([4]; 2 nM): 0.524
cell survival ([4]; 5 nM): 0.114
cell survival ([4]; 10 nM): 0.0472
cell survival ([4]; 20 nM): 0.00549
cell survival ([4]; 50 nM): 0.0072
